Biological target: T1, CLONED HUMAN ALPHA-1A ADRENERGIC RECEPTORS (α1a) (Homo sapiens, UniProt P35348)
T1 construct: expressed in transfected cells; host or cells: CHO cells, G418-resistant clone #7, vector pcDNA3; membranes
T1 sequence (P35348 1-466): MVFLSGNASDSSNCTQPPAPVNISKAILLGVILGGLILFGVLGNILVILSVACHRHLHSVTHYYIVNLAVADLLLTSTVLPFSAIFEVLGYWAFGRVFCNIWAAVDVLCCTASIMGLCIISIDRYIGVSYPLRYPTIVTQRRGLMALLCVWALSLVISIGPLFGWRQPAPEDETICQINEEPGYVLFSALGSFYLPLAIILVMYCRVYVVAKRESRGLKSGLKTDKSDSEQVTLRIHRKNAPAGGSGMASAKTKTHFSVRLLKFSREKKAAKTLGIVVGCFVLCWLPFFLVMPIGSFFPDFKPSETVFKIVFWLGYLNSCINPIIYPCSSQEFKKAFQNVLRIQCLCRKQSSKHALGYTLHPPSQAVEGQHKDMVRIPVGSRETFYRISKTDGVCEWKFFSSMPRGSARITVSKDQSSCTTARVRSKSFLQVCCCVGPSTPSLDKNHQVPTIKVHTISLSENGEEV
Experiment: [3H]Prazosin binding to cloned human alpha-1A adrenergic receptors expressed in CHO cells
Description: ^3H]PRAZOSIN BINDING TO CLONED HUMAN ALPHA-1A ADRENERGIC RECEPTORS (α1a) EXPRESSED IN CHINESE HAMSTER OVARY CELLS (CHO)
• purpose: This in vitro assay is designed as a screen to identify compounds displaying a affinity for the human α1a adrenoceptor subtype expressed in the membrane fragments of CHO cells. The assay measures the ability of the test compounds to displace [^3H] prazosin from α1a sites. The identification of multiple vascular α1-addrenoceptors (α1a, α1b, α1d) in vitro has provided impetus to define the role(s) of these subtypes in cardiovascular regulation in vivo (Vargas and Gorman, 1995). […] Therefore, the binding of compounds to α1a adrenergic receptors is believed to be a good measure of a compound's potential to cause orthostatic hypotension and sedation as side effects. Prazosin is a potent antagonist of the human α1a-adrenoceptor subtype, which has been cloned and is expressed in the membrane fragments of CHO cells. • hα1areceptor: The cloning of the human α1a cDNA was accomplished first by screening a human prostate cDNA library (Clontech), from which a portion of the coding region was obtained. This DNA fragment was then used to screen a human leukocyte genomic library (Clontech), and the rest of the coding sequence was obtained. Later these two fragments were spliced together. The entire coding sequence was then fully sequenced including matching PCR sequence with original genomic coding sequence, thus ensuring splice sites were joined correctly (Schwinn et al., 1995). Once sequenced, the gene was subcloned into the expression vector pcDNA3 (Invitrogen). Plasmid DNA was then used for transfection into CHO cells and G418 resistant clones were isolated. A clone expressing high levels of the hα1a receptor (as determined by mRNA and receptor binding data) was chosen and pharmacologically characterized. • Culture Media: Media Ingredients for Adherent α1a expressing CHO Culture: • A. HAM's F-12 (Cellgro) • B. 10% 0.2 micron filtered Fetal Bovine Serum (FBS)(Cellgro) • C. 1% 0.2 micron filtered Penicillin-Streptomycin (Cellgro) • D. G418 0.2 micron filtered (Geneticin 400µg/ml)(Cellgro) Cells are cultured using established methods and procedures in either 150x25mm culture plates (scale up to 100 plates) or a combination of these plates and 70 roller bottles. One culturing/harvest cycle typically requires 2 weeks and yields between 100-400mg protein. Plates or bottles are incubated at 37°C + 5% CO2. • Storage: Cells are harvested by mechanical scraping, washed using PBS, collected in 250ml Corning polypropylene centrifuge tubes, spun down (1500RPM) and resuspended in dH2O 10% DMSO (final volume per harvest is approximately 50ml). Protein determination is made using the Biorad DC Assay Kit. […] Bd. = 50µl 10µM phentolamine+50 µl [^3H]prazosin+100µl membrane Test Cpd. = 50µl compound + 50µl [^3H]prazosin + 100µl membrane Compounds to be evaluated are weighed out to yield a 10 mM stock solution in DMSO in a 24 well polystyrene plate. This is diluted to a 0.5 mM stock in dH2O. Serial dilutions in Buffer A are made from which 50 µl additions to the plate are made in duplicate in order to achieve the final concentrations desired. Typically, one 96 well plate is used to evaluate 11 compounds at 4 concentrations (10^-6-10^-9 M) in duplicate. Total binding and nonspecific binding are determined in quadruplicate. Usually one standard is run with each assay. [^3H]Prazosin is made up in Buffer A such that when 50 µl are added per well the final concentration is 1.0 nM in a final assay volume of 200 µl. The final concentration should be verified by running a sample in a scintillation counter prior to adding the [^3H]prazosin to the 96 well plate. Note: The radioactivity should be prepared just before the additions are made so that it is not allowed to sit on the bench for very long. […]

SMILES | halpha1 % I h=human (@ 1 uM) [% Inh @ 1 uM] | also measured
CCOC(=O)[C@H]1CC[C@H](NC(=O)CCCN2CCN(c3csc4cc(C(F)(F)F)ccc34)CC2)CC1 [compound 826805] | 27.8 | 
CC1(C)CCCN(C(=O)CCCN2CCN(c3csc4cc(C(F)(F)F)ccc34)CC2)C1 [compound 826817] | 44.4 | 
O=C(CCCN1CCN(c2csc3cc(C(F)(F)F)ccc23)CC1)NC1CCCCC1 [compound 826821] |  | halpha1 % I h=human (@ 0.1 nM): 24% Inh @ 0.1 nM
CC1CCCN(C(=O)CCCN2CCN(c3csc4cc(F)ccc34)CC2)C1 (stereo not shown) [compound 826855] |  | Ki (human alpha-1 receptor, read-out: halpha1Ki (nM) h=human): 0.689 nM

More lines, main results first:

halpha1 % I h=human (@ 1 uM) [% Inh @ 1 uM] | SMILES | also measured
32.8 | C[C@H]1CC[C@H](NC(=O)CCCN2CCN(c3csc4cc(C(F)(F)F)ccc34)CC2)CC1 [compound 826804] | 
10.3 | CC[C@H]1CC[C@H](NC(=O)CCCN2CCN(c3csc4cc(C(F)(F)F)ccc34)CC2)CC1 [compound 826806] | 
30.5 | CCN(C(=O)CCCN1CCN(c2csc3cc(C(F)(F)F)ccc23)CC1)C1CCCCC1 [compound 826809] | 

— patent publication EP1935887A1, “Heterocyclic substituted carbonyl derivatives and their use as dopamine D3 receptor ligands” (Aventis Pharmaceuticals Inc., priority 2001, dated 2002)
